Reference: ChEMBL document CHEMBL1131762, “Synthesis and identification of conformationally constrained selective MMP inhibitors” (Bioorg Med Chem Lett, 1999)

Molecular target: T1, Interstitial collagenase (Homo sapiens, UniProt P03956)
T1 sequence (P03956 whole entry): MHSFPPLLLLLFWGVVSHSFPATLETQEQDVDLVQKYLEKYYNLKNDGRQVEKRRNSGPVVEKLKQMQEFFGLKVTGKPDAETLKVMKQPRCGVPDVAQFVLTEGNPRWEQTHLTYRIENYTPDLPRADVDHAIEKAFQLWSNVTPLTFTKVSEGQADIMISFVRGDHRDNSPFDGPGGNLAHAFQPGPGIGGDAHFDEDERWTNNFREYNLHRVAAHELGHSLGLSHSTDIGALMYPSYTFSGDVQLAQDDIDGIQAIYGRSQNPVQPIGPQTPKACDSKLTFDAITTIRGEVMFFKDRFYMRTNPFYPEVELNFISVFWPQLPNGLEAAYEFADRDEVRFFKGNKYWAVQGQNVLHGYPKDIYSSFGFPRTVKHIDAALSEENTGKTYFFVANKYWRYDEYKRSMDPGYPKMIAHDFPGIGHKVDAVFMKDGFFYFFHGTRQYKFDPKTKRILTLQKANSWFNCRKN
Experiment: Inhibition of human recombinant matrix metalloprotease-1 (hMMP-1)

Row | IC50 [µM] | SMILES
1 | > 10 | O=S(=O)(c1ccc(Sc2ccccc2)cc1)C1CCCC(S)C1 (centres undefined)
2 | 1 | COc1ccc(S(=O)(=O)C2CCCC(S)C2)cc1 (centres undefined)
3 | > 10 | COc1ccc(S(=O)(=O)C2CCC(S)C2)cc1 (centres undefined)

Row | SMILES | IC50 [µM]
4 | O=S(=O)(c1ccc(Oc2ccccc2)cc1)C1CCCC(S)C1 (centres undefined) | 1.7

Molecular target: Neutrophil collagenase (Homo sapiens, UniProt P22894)
Sequence (P22894 whole entry): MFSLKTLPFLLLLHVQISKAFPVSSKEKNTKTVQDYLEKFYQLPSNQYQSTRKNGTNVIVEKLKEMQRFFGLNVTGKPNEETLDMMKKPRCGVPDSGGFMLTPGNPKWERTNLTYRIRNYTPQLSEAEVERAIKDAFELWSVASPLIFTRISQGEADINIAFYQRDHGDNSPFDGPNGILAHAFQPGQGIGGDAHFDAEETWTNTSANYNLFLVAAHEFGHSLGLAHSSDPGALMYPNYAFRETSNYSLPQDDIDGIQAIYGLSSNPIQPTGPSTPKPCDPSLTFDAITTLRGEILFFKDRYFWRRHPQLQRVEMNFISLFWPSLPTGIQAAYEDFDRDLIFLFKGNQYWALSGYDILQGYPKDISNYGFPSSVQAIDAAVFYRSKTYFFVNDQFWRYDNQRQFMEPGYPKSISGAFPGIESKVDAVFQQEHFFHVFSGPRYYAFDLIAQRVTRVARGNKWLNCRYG
Experiment: Inhibition of human recombinant matrix metalloprotease-8 (hMMP-8)

Row | IC50 [µM] | SMILES
5 | 0.05 | O=S(=O)(c1ccc(Sc2ccccc2)cc1)C1CCCC(S)C1 (centres undefined)
6 | 0.585 | COc1ccc(S(=O)(=O)C2CCCC(S)C2)cc1 (centres undefined)
7 | 1.1 | COc1ccc(S(=O)(=O)CCCS)cc1

Row | SMILES | IC50 [µM]
8 | O=S(=O)(c1ccc(Oc2ccccc2)cc1)C1CCCC(S)C1 (centres undefined) | 0.008

Molecular target: Collagenase 3 (Homo sapiens, UniProt P45452)
Experiment: Inhibition of human recombinant matrix metalloprotease-13 (hMMP-13)

Row | SMILES | IC50 [µM]
9 | O=S(=O)(c1ccc(Oc2ccccc2)cc1)C1CCCC(S)C1 (centres undefined) | 0.001
